This is an account of results in US20100120084A1, “REACTION MEDIUM FOR IDENTIFYING/DETECTING MICROORGANISMS” (Biomerieux, priority 2007, published 2010).

Where two headings read alike, the source gives them in different places.

One series has as its system β-lactamase. The experiment in a line: β-lactamase resistance to heat degradation (residual amoxicillin by HPLC). Conditions: for [Amoxicillin] (arbitrary units): amoxicillin 500 mg·L^−1, 5 min at 25° C.
The format of series [1] is physicochemical. The note with it: for native molecule (cloxacillin) found after heating: 31 h at 75° C. As to the method: Cloxacillin (molecular mass 475.88) is an antibiotic of β-lactam type, used to inhibit the growth of certain bacterial species such as Enterobacter aerogenes or Escherichia coli. The cyclodextrins of the BioCydex library were incubated with cloxacillin in a 1:1 molar ratio (concentration=210.12 mM), at 20° C. for 72 h (shaking in the dark). The amount of residual cloxacillin was then analyzed by HPLC.
The following tests were carried out in an aqueous medium and at high temperature (75° C.) in order to accelerate the rate of degradation.
The complexes were prepared at ambient temperature with cloxacillin:cyclodextrin molar ratios of 1:16 and of 1:79. The solutions containing 0.63 mM, i.e. 300 mg·L^−1, of cloxacillin were incubated at 75° C. for 31 h. The analysis of the samples and the quantification thereof so as to evaluate the stability of the antibiotic were carried out on a Thermo Finnigan SpectraSYSTEM HPLC system equipped with a P1000XR pump, an AS3000 automatic injector, a UV1000 UV/visible detector, and a Merck Chromolith® Performance RP-18 endcapped column (100-4.6 mm) preceded by a Merck Chromolith® RP-18e guard column (5-4.6 mm).
The mobile phases were prepared using HPLC-grade acetonitrile and water acidified with trifluoroacetic acid (100 μL/L). A methanol/water gradient of 0/100 to 100/0 was applied in 12 min. After stabilization for 2 min, the column is reequilibrated under the initial conditions. The elution speed is 1 mL/min, the temperature is 22° C. and the detection is carried out at 220 nm. The sample injection volume is 20 μL. The chromatographic data were processed using the Atlas software, version 2003.1 (Thermo Electron Corporation, UK).

Series [2] in a line: Stability of cefoxitin in the presence of cyclodextrins at 65° C. (HPLC). It counts as physicochemical. As to the method:
0.444 mM of cefoxitin (Sigma, Ref. C4786-5G) and 8.88 mM of cyclodextrin (ACD N0 or GCD NO or BCD R59 or BCD C15), i.e. in a molar ratio of 1:20, were dissolved with stirring for one hour at ambient temperature. The mixture was then brought to 65° C. for 90 min. The integrity of the cefoxitin was then analyzed by HPLC. The analysis of the samples and the quantification thereof were carried out on a Thermo Finnigan SpectraSYSTEM HPLC system equipped with a P1000XR pump, an AS3000 automatic injector, a UV1000 UV/visible detector, and a Merck Chromolith® Performance RP-18 endcapped column (100-4.6 mm) preceded by a Merck Chromolith® RP-18e guard column (5-4.6 mm).
The mobile phases were prepared using HPLC-grade acetonitrile and water acidified with trifluoroacetic acid (100 μL/L). A methanol/water gradient of 0/100 to 100/0 was applied in 12 min. After stabilization for 2 min, the column is reequilibrated under the initial conditions. The elution speed is 1 mL/min, the temperature is 22° C. and the detection is carried out at 254 nm. The sample injection volume is 20 μL. The chromatographic data were processed using the Atlas software, version 2003.1 (Thermo Electron Corporation, UK).
The optimization of protection was sought by varying the cefoxitin:cyclodextrin (BCD R59 and BCD C15) molar ratio from 1:1 to 1:216, the other conditions remaining unchanged. […] The improvement in stability was calculated relative to the control without cyclodextrin.

Setting [3] is: cloxacillin complexed with cyclodextrin.

Description for β-lactamase: β-Lactamase (Genzyme Biochemicals Ref. BELA-70-1431) in an amount equivalent to 0.375 U·mL^−1 was mixed with the cyclodextrin BCD A56 of the Protéosol® range (1 or 10 mM), at ambient temperature and in the dark, for 30 min. The mixture was then heated at 70° C. for 45 min. […] After incubation for 5 min at 25° C., the residual amoxicillin was analyzed by HPLC.
On the basis of the above profiles, it was possible to quantify the concentration of amoxicillin and to link this value to the β-lactamase activity.

Turning to “6^I-(3-aminopropylamino)-6^I-deoxycyclomaltoheptaose [BCD A56]”, the “protection of the β-lactamase against heat” value with β-lactamase (BCD A56 at 10 mM, reference: absence of cyclodextrin) is listed as “excellent protection”. For the same molecule, in the series with β-lactamase (β-lactamase + BCD A56), the “interaction with the active site of the enzyme” value is given as “did not interact”. The “[Amoxicillin] (arbitrary units)” value is given as 4.3 arbitrary units in the series with β-lactamase (β-lactamase heated 70° C. 45 min + BCD A56 at 1 mM) and 0.8 arbitrary units in the series with β-lactamase (β-lactamase heated 70° C. 45 min + BCD A56 at 10 mM).
With “randomly 2,3,6-O-(2-hydroxypropyl)cyclomaltoheptaose [BCD R59]”, in series [1] (setting [3]), the “native molecule (cloxacillin) found after heating” value (from here on “native molecule”) came to 40%.
Turning to `Cc1onc(-c2ccccc2Cl)c1C(=O)N[C@@H]1C(=O)N2[C@@H]1SC(C)(C)[C@@H]2C(=O)O` [cloxacillin, reference compound], the “Cloxacillin stability (%)” value in series [1] (31 h, 0.63 mM) is recorded as 0.6%. Moreover, in series [1] (cloxacillin not associated with cyclodextrin), the “native molecule” value was 0%.
For the molecule `CO[C@@]1(NC(=O)Cc2cccs2)C(=O)N2C(C(=O)O)=C(COC(N)=O)CS[C@@H]21` [cefoxitin, reference compound], in series [2] (cefoxitin:cyclodextrin molar ratio 1:50, 90 min at 65° C.), the stability of cefoxitin came to 47.5%. Moreover, the Cefoxitin stability/% in series [2] (no cyclodextrin, 0.444 mM cefoxitin, 65° C. for 90 min) was found to be 38.5%.
As to “randomly 2-O-methyl-cyclomaltoheptaose [BCD C15]”, the “protection of cloxacillin against heat degradation, comparison of cyclodextrins” value in series [1] is “best protection”. Moreover, in series [1] (setting [3]), the “native molecule” value came to 40%. Also, the “complexed antibiotic (cefoxitin) less degraded than the molecule alone” value in series [2] is “approximately 10%”. The “protection of cefoxitin, comparison of BCD R59 and BCD C15” value in series [2] (molar ratios between 1:6 and 1:30, FIG. 2) is recorded as “most effective”.
